Laboratory results: the supplement of paper PMC10307832

Legend:
Assay in all cases: relative viability (nuclei count vs DMSO), 5 days (fraction); higher = more cells survive
[1] = compound: C[C@H]([C@@H](C(=O)N)NC(=O)[C@@H]1CSSC[C@@H](C(=O)N[C@H](C(=O)N[C@@H](C(=O)N[C@H](C(=O)N1)CCCCN)CC2=CNC3=CC=CC=C32)CC4=CC=C(C=C4)O)NC(=O)[C@@H](CC5=CC=CC=C5)N)O [CAP-232] + O=C(CCCCCCC(=O)Nc1ccccc1)NO [Vorinostat] (partner 1 µM)
Summary of the method: (§1)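 Lung cancer cell lines in 1536-well plates were dosed by pin tool the day after seeding, either with one drug alone or with a fixed anchor-drug dose plus five library-drug doses (not always all listed) in √10 steps. After 5 days, cells were fixed and their nuclei stained in one step (final 0.05% Triton X-100, 1% formaldehyde, 1 ug/ml Hoechst), then counted on 4× images. Relative viability is the nuclei count in treated wells divided by that in vehicle wells. Values are medians of duplicate plates.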

[2] = compound: C[C@H]([C@@H](C(=O)N)NC(=O)[C@@H]1CSSC[C@@H](C(=O)N[C@H](C(=O)N[C@@H](C(=O)N[C@H](C(=O)N1)CCCCN)CC2=CNC3=CC=CC=C32)CC4=CC=C(C=C4)O)NC(=O)[C@@H](CC5=CC=CC=C5)N)O [CAP-232] + O=C(c1cc(Cc2n[nH]c(=O)c3ccccc23)ccc1F)N1CCN(C(=O)C2CC2)CC1 [Olaparib] (partner 8 µM)
Summary of the method: as §1

[3] = compound: C[C@H]([C@@H](C(=O)N)NC(=O)[C@@H]1CSSC[C@@H](C(=O)N[C@H](C(=O)N[C@@H](C(=O)N[C@H](C(=O)N1)CCCCN)CC2=CNC3=CC=CC=C32)CC4=CC=C(C=C4)O)NC(=O)[C@@H](CC5=CC=CC=C5)N)O [CAP-232] + Nc1nc2[nH]cc(CCc3ccc(C(=O)N[C@@H](CCC(=O)O)C(=O)O)cc3)c2c(=O)[nH]1 [Pemetrexed] (partner 0.2 µM)
Summary of the method: as §1

[4] = compound: C[C@H]([C@@H](C(=O)N)NC(=O)[C@@H]1CSSC[C@@H](C(=O)N[C@H](C(=O)N[C@@H](C(=O)N[C@H](C(=O)N1)CCCCN)CC2=CNC3=CC=CC=C32)CC4=CC=C(C=C4)O)NC(=O)[C@@H](CC5=CC=CC=C5)N)O [CAP-232] + Nc1ncn([C@H]2C[C@H](O)[C@@H](CO)O2)c(=O)n1 [Decitabine] (partner 2 µM)
Summary of the method: as §1

[5] = compound: C[C@H]([C@@H](C(=O)N)NC(=O)[C@@H]1CSSC[C@@H](C(=O)N[C@H](C(=O)N[C@@H](C(=O)N[C@H](C(=O)N1)CCCCN)CC2=CNC3=CC=CC=C32)CC4=CC=C(C=C4)O)NC(=O)[C@@H](CC5=CC=CC=C5)N)O [CAP-232] + Cc1nc(NC(=O)N2CCC[C@H]2C(N)=O)sc1-c1ccnc(C(C)(C)C(F)(F)F)c1 [Alpelisib] (partner 2 µM)
Summary of the method: as §1

Cell Line | relative viability ([1]; first compound 0.4 µM) | relative viability ([1]; first compound 1.265 µM) | relative viability ([1]; first compound 4 µM) | relative viability ([1]; first compound 12.65 µM) | relative viability ([2]; first compound 0.4 µM) | relative viability ([2]; first compound 1.265 µM) | relative viability ([2]; first compound 4 µM) | relative viability ([2]; first compound 12.65 µM) | relative viability ([3]; first compound 0.4 µM) | relative viability ([3]; first compound 1.265 µM) | relative viability ([3]; first compound 4 µM) | relative viability ([3]; first compound 12.65 µM) | relative viability ([4]; first compound 0.4 µM) | relative viability ([4]; first compound 1.265 µM) | relative viability ([4]; first compound 4 µM) | relative viability ([4]; first compound 12.65 µM) | relative viability ([5]; first compound 0.4 µM) | relative viability ([5]; first compound 1.265 µM) | relative viability ([5]; first compound 4 µM) | relative viability ([5]; first compound 12.65 µM)
NCI-H838 | 0.727 | 0.756 | 0.754 | 0.736 | 0.883 | 0.808 | 0.836 | 0.705 | 0.254 | 0.26 | 0.245 | 0.261 | 0.408 | 0.469 | 0.479 | 0.374 | 1.08 | 0.944 | 1.12 | 0.644
NCI-H441 | 0.879 | 0.824 | 0.936 | 0.77 | 0.482 | 0.551 | 0.595 | 0.429 | 0.25 | 0.234 | 0.281 | 0.262 | 0.26 | 0.242 | 0.286 | 0.234 | 0.757 | 0.912 | 0.788 | 0.843
HOP-62 | 0.589 | 0.484 | 0.676 | 0.543 | 1.08 | 0.388 | 0.604 | 0.709 | 0.331 | 0.322 | 0.341 | 0.295 | 0.255 | 0.209 | 0.256 | 0.229 | 0.967 |  | 1.17 | 1.29
SK-LU-1 | 0.744 | 0.792 | 0.761 | 0.591 | 0.388 | 0.44 | 0.412 | 0.408 | 0.916 | 0.996 | 1.03 | 0.658 | 0.628 | 0.622 | 0.768 | 0.469 | 1 | 1.11 | 1.07 | 0.96
HCC-44 | 1.08 | 1.08 | 1.15 | 1.13 | 0.99 | 0.975 | 0.943 | 1.04 | 0.648 | 0.622 | 0.626 | 0.686 | 1.03 | 0.962 | 0.972 | 0.935 | 0.898 | 0.768 | 0.843 | 0.75
LCLC-103H | 0.875 | 0.729 | 0.827 | 0.825 | 0.882 | 0.752 | 0.733 | 0.751 | 0.443 | 0.441 | 0.431 | 0.445 | 0.777 | 0.687 | 0.735 | 0.704 | 0.948 | 0.921 | 0.972 | 0.898
NCI-H1915 | 0.697 | 0.511 | 0.516 | 0.506 | 0.243 | 0.248 | 0.249 | 0.267 | 0.563 | 0.41 | 0.55 | 0.464 | 0.272 | 0.227 | 0.269 | 0.25 | 1.05 | 1.02 | 1.04 | 1.06
